Experimental findings from publication PMC7004151, “Synthesis and Structure‐Activity Relationships of N‐(4‐Benzamidino)‐Oxazolidinones: Potent and Selective Inhibitors of Kallikrein‐Related Peptidase 6” (Chemmedchem, 2019) are described below.

Structures are written as SMILES.

The target of one data set is T1, KLK8 (Homo sapiens, UniProt O60259).
T1 construct: purchased 2B scientific
T1 sequence (O60259 33-260): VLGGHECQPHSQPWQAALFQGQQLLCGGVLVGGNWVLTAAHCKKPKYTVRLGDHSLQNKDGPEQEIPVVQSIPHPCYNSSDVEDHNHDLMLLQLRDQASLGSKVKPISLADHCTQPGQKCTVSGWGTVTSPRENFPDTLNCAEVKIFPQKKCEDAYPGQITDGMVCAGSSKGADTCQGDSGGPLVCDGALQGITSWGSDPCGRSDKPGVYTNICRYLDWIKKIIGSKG
Nature of the data set: KLK8 enzyme inhibition assay. It is filed as biochemical. The conditions noted are these: read-out: KLK8 pIC50 (converted). The method, then: Enzyme inhibition assays: All chemicals were purchased from Sigma Aldrich (Gillingham, UK) unless otherwise stated. All experiments were conducted in 384 well black, low volume microplates (Greiner 784076) with a final volume of 20 μL and compounds were dispensed into assay plates using an ECHO 550 acoustic dispenser (Labcyte). KLK6 (5 nM) (prepared as in ref. 21) was incubated with test compounds for 30 min at room temperature in assay buffer (50 mM Tris, pH 7.5, 150 mM NaCl, 1 mM EDTA, 0.05 % tween 20, 0.1 % bovine serum albumin (BSA), 1 mM dithiothreitol (DTT)) before the reaction was started by addition of 20 μM Boc‐Phe‐Ser‐Arg‐AMC substrate (Bachem). Fluorescence intensity was read at ex/em 355/460 following incubation for 2 h in the dark at room temperature.
Assays using KLK7 and KLK8 (2B scientific) were conducted in the same manner as for KLK6 with the following exceptions. Both KLK7 and KLK8 required activation before assaying. KLK7 was combined with an equal volume of 20 μg/ml thermolysin (R&D systems) in activation buffer (50 mM Tris, pH 7.5, 10 mM CaCl2, 150 mM NaCl and 0.05 % Brij‐L23) and incubated at 37 °C for 2 h, the reaction was stopped with the addition of 100 mM EDTA in stop solution (50 mM Tris, 150 mM NaCl, pH 8.5). KLK8 was combined with an equal volume of 0.4 mU/mL lysyl endopeptidase (Alpha laboratories) in activation buffer (50 mM Tris, pH 8.0) and incubated at 37 °C for 30 min. Activated KLK7 (40 nM) and KLK8 (25 nM) were assayed with 40 μM Mca‐RPKPVE‐Nval‐WRK(Dnp)‐NH2 fluorogenic MMP substrate (R&D systems) and 25 μM Boc‐V‐P‐R‐AMC substrate (R&D systems), respectively.

Data set [1] is described as follows: Kinetic aqueous solubility (laser nephelometry). The class given is physicochemical. To be noted: Milli-Q water with […] DMSO, kinetic from dmso stock, 2.5 % DMSO. On the procedure: Kinetic aqueous solubility: The aqueous solubility of the test compounds was measured using laser Nephelometry. Compounds were subjected to serial dilution from 10 mM to 0.5 mM in DMSO. An aliquot was then mixed with Milli‐Q water to obtain an aqueous dilution plate with a final concentration range of 250–12 μM, with a final DMSO concentration of 2.5 %. Triplicate aliquots were transferred to a flat bottomed polystyrene plate which was immediately read on the NEPHELOstar (BMG Lab Technologies). The amount of laser scatter caused by insoluble particulates (relative nephelometry units, RNU) was plotted against compound concentration using a segmental regression fit, with the point of inflection being quoted as the compounds aqueous solubility (μM).

Data set [2] can be described thus: Microsomal intrinsic clearance, human microsomes. It is filed as in vitro ADME. On the procedure: Immediately, at time zero, then at 3, 6, 9, 15 and 30 min an aliquot (50 μL) of the incubation mixture was removed and mixed with acetonitrile (100 μL) to stop the reaction. Internal standard was added to all samples, the samples centrifuged to sediment precipitated protein and the plates then sealed prior to UPLC‐MS/MS analysis using a Quattro Premier XE (Waters Corporation, USA). XLfit (IDBS, UK) was used to calculate the exponential decay and consequently the rate constant (k) from the ratio of peak area of test compound to internal standard at each timepoint. The rate of intrinsic clearance (CLint) of each test compound was then calculated using the following calculation: CLint (mL/min/g liver)=k×V×Microsomal protein yield. Where V (mL/mg protein) is the incubation volume/mg protein added and microsomal protein yield is taken as 52.5 mg protein/g liver. Verapamil (0.5 μM) was used as a positive control to confirm acceptable assay performance.

In a further data set the test system is HCT116 cells. Nature of the data set: HCT116 Matrigel invasion assay. To be noted: after 24 h; 9 at multiple concentrations; 32 at 50 nM and 500 nM. It is filed as cell-based. The method, then: Figure 5 HCT116 cells were treated with 9 or 32 at the indicated concentrations and plated on Matrigel®‐coated filters. The upper chamber contained serum‐free medium, while the lower chamber contained 10 % fetal bovine serum. After 24 h, the number of invading cells was measured optically. (A) This figure is one representative example of four biological replicates, each with similar outcomes. Error bars are SEM. Technical replicates: DMSO and 9 at 5 nM (n=3); 9 at 50 and 500 nM and 32 at all concentrations (n=6). Statistical significance was calculated using an unpaired two‐tailed t‐test. n.s=p≥0.05; **=p<0.01; ***=p<0.001. (B) Representative images (Scale bar, […]) of stained invaded cells outside of the inserts 24 h hours after treatment with 9, 32, or DMSO solvent control at the indicated concentrations. Phase contrast images were taken with EVOS FL Cell imagine system FL Auto microscope (Bio‐Rad).
Invasion assay: The HCT116 colorectal adenocarcinoma cell line (ATCC® CCL‐247™) was maintained in Dulbecco's Modified Eagle Medium (DMEM) with […] glucose, L‐glutamine w/o sodium pyruvate, supplemented with 10 % FBS and 1 % penicillin/streptomycin. […] The samples were transferred to a new 96 well plate and read at 560 nm on a Synergy 2 Multi‐Detection Microplate Reader (Bio‐Tek Instruments, Inc., Winooski, VT).

Take `CC[C@H](NC(=O)[C@H]1CN(c2ccc(C(=N)N)cc2)C(=O)O1)c1cccc2ccccc12` [Compound 32, (5R)‐3‐(4‐carbamimidoylphenyl)‐N‐((S)‐1‐(naphthalen‐1‐yl)propyl)‐2‐oxooxazolidine‐5‐carboxamide]: at KLK8, the IC50 is 0.2 µM. The solubility (kinetic) (commonly solubility judged after dilution from a stock solution rather than from solid) in data set [1] was > 250 µM. Further, the “Human CLint” value in data set [2] was determined as 3.1 mL/min/g. Besides, in the data set with HCT116 cells, the “invasion of HCT116 cells” value was “significant reduction in invasion”.
